In brackets after ≈: the same amount, converted by molar mass. Like-named read-outs stand apart in the source and are kept apart here. Non-standard residues stand in square brackets, D forms with d. Residues, ends and D or L forms follow the SMILES beside them. Bip = N[C@@H](Cc1ccc(-c2ccccc2)cc1)C(=O)O; Dip = N[C@H](C(=O)O)C(c1ccccc1)c1ccccc1
Tests used:
[1] = system: Pseudomonas aeruginosa (ATCC 27883)
[2] = system: Escherichia coli (ATCC 25922)
[3] = system: Methicillin-resistant Staphylococcus aureus MRSA (ATCC BAA-1556)
[4] = system: S. aureus ATCC 29213

Compound | MIC P. aeruginosa ATCC 27883 ([1]; ATCC 27883) | MIC E. coli ATCC 25922 ([2]; ATCC 25922) | MIC MRSA ATCC BAA-1556 ([3]; ATCC BAA-1556) | MIC S. aureus ATCC 29213 ([4]; ATCC 29213) | MIC P. aeruginosa ATCC 27883 ([1]; Table 19) | MIC P. aeruginosa ATCC 27883 [1] | MIC E. coli ATCC 25922 [2] | MIC MRSA ATCC BAA-1556 [3] | MIC S. aureus ATCC 29213 [4]
N=C(N)NCCC[C@@H]1NC(=O)[C@H](CCCNC(=N)N)NC(=O)[C@H](Cc2ccc(-c3ccccc3)cc2)NC(=O)[C@H](Cc2ccc(-c3ccccc3)cc2)NC(=O)[C@H](Cc2ccc(-c3ccccc3)cc2)NC(=O)[C@H](CCCNC(=N)N)NC1=O [IFX-001, c[Arg-Arg-Arg-Bip-Bip-Bip]] (cyclo([Bip][Bip][Bip]RRR)) | >100 µg/mL | >100 µg/mL | 50 µg/mL (≈ 43.9 µM) | 50 µg/mL (≈ 43.9 µM) | – | – | – | – | –
N=C(N)NCCC[C@H](NC(=O)[C@H](CCCNC(=N)N)NC(=O)[C@@H](N)CCCNC(=N)N)C(=O)N[C@@H](Cc1ccc(-c2ccccc2)cc1)C(=O)N[C@@H](Cc1ccc(-c2ccccc2)cc1)C(=O)N[C@@H](Cc1ccc(-c2ccccc2)cc1)C(=O)O [IFX-001-1, NH2-Arg-Arg-Arg-Bip-Bip-Bip-OH] (H-RRR[Bip][Bip][Bip]-OH) | >100 µg/mL | >100 µg/mL | 50 µg/mL (≈ 43.2 µM) | 50 µg/mL (≈ 43.2 µM) | – | – | – | – | –
N=C(N)NCCC[C@@H]1NC(=O)[C@H](CCCNC(=N)N)NC(=O)[C@H](CCCNC(=N)N)NC(=O)[C@H](Cc2ccc(-c3ccccc3)cc2)NC(=O)[C@H](Cc2ccc(-c3ccccc3)cc2)NC(=O)[C@H](Cc2ccc(-c3ccccc3)cc2)NC(=O)[C@H](Cc2ccc(-c3ccccc3)cc2)NC(=O)[C@H](CCCNC(=N)N)NC1=O [IFX-004, c[Arg-Arg-Arg-Arg-Bip-Bip-Bip-Bip]] (cyclo([Bip][Bip][Bip][Bip]RRRR)) | >100 µg/mL | >100 µg/mL | >100 µg/mL | 50 µg/mL (≈ 32.9 µM) | – | – | – | – | –
N=C(N)NCCC[C@H](NC(=O)[C@H](CCCNC(=N)N)NC(=O)[C@H](CCCNC(=N)N)NC(=O)[C@@H](N)CCCNC(=N)N)C(=O)N[C@@H](Cc1ccc(-c2ccccc2)cc1)C(=O)N[C@@H](Cc1ccc(-c2ccccc2)cc1)C(=O)N[C@@H](Cc1ccc(-c2ccccc2)cc1)C(=O)N[C@@H](Cc1ccc(-c2ccccc2)cc1)C(=O)O [IFX-004-1, NH2-Arg-Arg-Arg-Arg-Bip-Bip-Bip-Bip-OH] (H-RRRR[Bip][Bip][Bip][Bip]-OH) | >100 µg/mL | >100 µg/mL | >100 µg/mL | >100 µg/mL | – | – | – | – | –
N=C(N)NCCC[C@@H]1NC(=O)[C@H](CCCNC(=N)N)NC(=O)[C@H](CCCNC(=N)N)NC(=O)[C@H](Cc2ccc(-c3ccccc3)cc2)NC(=O)[C@H](Cc2ccc(-c3ccccc3)cc2)NC(=O)[C@H](Cc2ccc(-c3ccccc3)cc2)NC(=O)[C@H](CCCNC(=N)N)NC1=O [IFX-007, c[Arg-Arg-Arg-Arg-Bip-Bip-Bip]] (cyclo([Bip][Bip][Bip]RRRR)) | 25 µg/mL (≈ 19.3 µM) | >100 µg/mL | 6.2 µg/mL (≈ 4.79 µM) | 3.1 µg/mL (≈ 2.39 µM) | – | – | – | – | –
N=C(N)NCCC[C@H](NC(=O)[C@H](CCCNC(=N)N)NC(=O)[C@H](CCCNC(=N)N)NC(=O)[C@@H](N)CCCNC(=N)N)C(=O)N[C@@H](Cc1ccc(-c2ccccc2)cc1)C(=O)N[C@@H](Cc1ccc(-c2ccccc2)cc1)C(=O)N[C@@H](Cc1ccc(-c2ccccc2)cc1)C(=O)O [IFX-007-1, NH2-Arg-Arg-Arg-Arg-Bip-Bip-Bip-OH] (H-RRRR[Bip][Bip][Bip]-OH) | 25 µg/mL (≈ 19 µM) | >100 µg/mL | 6.2 µg/mL (≈ 4.72 µM) | 6.2 µg/mL (≈ 4.72 µM) | – | – | – | – | –
N=C(N)NCCC[C@H](NC(=O)[C@H](CCCNC(=N)N)NC(=O)[C@H](CCCNC(=N)N)NC(=O)[C@@H](N)CCCNC(=N)N)C(=O)N[C@@H](CCCNC(=N)N)C(=O)N[C@H](C(=O)N[C@H](C(=O)N[C@H](C(=O)O)C(c1ccccc1)c1ccccc1)C(c1ccccc1)c1ccccc1)C(c1ccccc1)c1ccccc1 [IFX-012-1, NH2-Arg-Arg-Arg-Arg-Arg-Dip-Dip-Dip-OH] (H-RRRRR[Dip][Dip][Dip]-OH) | 50 µg/mL (≈ 34 µM) | 25 µg/mL (≈ 17 µM) | 3.1 µg/mL (≈ 2.11 µM) | 3.1 µg/mL (≈ 2.11 µM) | – | – | – | – | –
N=C(N)NCCC[C@@H]1NC(=O)CNC(=O)CNC(=O)[C@H](Cc2c[nH]c3ccccc23)NC(=O)[C@H](Cc2c[nH]c3ccccc23)NC(=O)[C@H](Cc2c[nH]c3ccccc23)NC(=O)[C@H](Cc2c[nH]c3ccccc23)NC(=O)CNC(=O)CNC(=O)[C@H](CCCNC(=N)N)NC(=O)[C@H](CCCNC(=N)N)NC(=O)[C@H](CCCNC(=N)N)NC1=O [IFX-044] (cyclo(GGRRRRGGWWWW)) | 50 µg/mL (≈ 31.3 µM) | 50 µg/mL (≈ 31.3 µM) | 25 µg/mL (≈ 15.6 µM) | 25 µg/mL (≈ 15.6 µM) | – | – | – | – | –
N=C(N)NCCC[C@@H]1NC(=O)[C@H](CCCNC(=N)N)NC(=O)[C@H](Cc2c[nH]c3ccccc23)NC(=O)[C@H](Cc2c[nH]c3ccccc23)NC(=O)[C@H](Cc2c[nH]c3ccccc23)NC(=O)[C@H](Cc2c[nH]c3ccccc23)NC(=O)[C@H](Cc2c[nH]c3ccccc23)NC(=O)[C@H](Cc2c[nH]c3ccccc23)NC(=O)[C@H](Cc2c[nH]c3ccccc23)NC(=O)[C@H](CCCNC(=N)N)NC1=O [IFX-306] (cyclo(RRRWWWWWWW)) | – | – | – | – | 256 µg/mL (≈ 144 µM) | – | – | – | –
N=C(N)NCCC[C@H]1NC(=O)[C@H](Cc2c[nH]c3ccccc23)NC(=O)[C@H](Cc2c[nH]c3ccccc23)NC(=O)[C@H](Cc2c[nH]c3ccccc23)NC(=O)[C@H](Cc2c[nH]c3ccccc23)NC(=O)[C@@H](CCCNC(=N)N)NC(=O)[C@@H](CCCNC(=N)N)NC(=O)[C@@H](CCCNC(=N)N)NC1=O [IFX-309] (cyclo([dR][dR][dR][dR]WWWW)) | – | 16 µg/mL (≈ 11.7 µM) | – | – | – | – | – | – | –
c[Arg-Arg-Arg-Arg-1meW-1meW-1meW-1meW] [IFX-041] | – | – | – | – | – | 25 µg/mL | 25 µg/mL | 6.2 µg/mL | 3.1 µg/mL
c[Arg-Arg-Arg-Arg-5brW-5brW-5brW-5brW] [IFX-039] | – | – | – | – | – | >100 µg/mL | >100 µg/mL | 25 µg/mL | 25 µg/mL
c[Arg-Arg-Arg-Arg-5fW-5fW-5fW-5fW] [IFX-038] | – | – | – | – | – | 100 µg/mL | 50 µg/mL | 25 µg/mL | 12.5 µg/mL
c[Arg-Arg-Arg-Arg-7metW-7metW-7metW-7metW] [IFX-042] | – | – | – | – | – | 50 µg/mL | 25 µg/mL | 6.2 µg/mL | 6.1 µg/mL
c[Arg-arg-Arg-arg-PEG4-Trp-naI-naI] [IFX-051] | – | – | – | – | – | 128 µg/mL | 128 µg/mL | 32 µg/mL | 32 µg/mL
c[Arg-arg-PEG4-Arg-arg-Trp-naI-naI] [IFX-052] | – | – | – | – | – | 128 µg/mL | 64 µg/mL | 32 µg/mL | 32 µg/mL
c[PEG1-Arg-Arg-Arg-Arg-Arg-PEG1-Dip-Dip-Dip] [IFX-050-1] | – | – | – | – | – | 128 µg/mL | 32 µg/mL | 32 µg/mL | 16 µg/mL
c[PEG1-Arg-Arg-Arg-Arg-PEG1-Dip-Dip-Dip] [IFX-048] | – | – | – | – | – | 64 µg/mL | 64 µg/mL | 16 µg/mL | 16 µg/mL
c[PEG1-Arg-Arg-Arg-Arg-PEG1-Trp-Trp-Trp-Trp] [IFX-046] | – | – | – | – | – | 50 µg/mL | 50 µg/mL | 25 µg/mL | 25 µg/mL
c[PEG2-Arg-Arg-Arg-Arg-Arg-PEG2-Dip-Dip-Dip] [IFX-050-2] | – | – | – | – | – | 128 µg/mL | 64 µg/mL | 16 µg/mL | 16 µg/mL
c[PEG2-Arg-Arg-Arg-Arg-PEG2-Dip-Dip-Dip] [IFX-049] | – | – | – | – | – | 64 µg/mL | 128 µg/mL | 8 µg/mL | 8 µg/mL
c[PEG2-Arg-Arg-Arg-Arg-PEG2-Trp-Trp-Trp-Trp] [IFX-047] | – | – | – | – | – | 50 µg/mL | 100 µg/mL | 50 µg/mL | 50 µg/mL
c[PEG4-Arg-arg-Arg-arg-Trp-naI-naI] [IFX-053] | – | – | – | – | – | 128 µg/mL | 64 µg/mL | 16 µg/mL | 16 µg/mL

From patent US20220289794A1, “SYNTHETIC ANTIMICROBIAL PEPTIDES” (priority 2019, published 2022)
